{
  "source": "patent US7825118B2",
  "about": "“Inhibitors of bruton's tyrosine kinase” (Pharmacyclics, Inc., priority 2006, dated 2010)",
  "key": {"[1]": {"molecular_target": "JAK3 (Homo sapiens, UniProt P52333)", "sequence (P52333 whole entry)": "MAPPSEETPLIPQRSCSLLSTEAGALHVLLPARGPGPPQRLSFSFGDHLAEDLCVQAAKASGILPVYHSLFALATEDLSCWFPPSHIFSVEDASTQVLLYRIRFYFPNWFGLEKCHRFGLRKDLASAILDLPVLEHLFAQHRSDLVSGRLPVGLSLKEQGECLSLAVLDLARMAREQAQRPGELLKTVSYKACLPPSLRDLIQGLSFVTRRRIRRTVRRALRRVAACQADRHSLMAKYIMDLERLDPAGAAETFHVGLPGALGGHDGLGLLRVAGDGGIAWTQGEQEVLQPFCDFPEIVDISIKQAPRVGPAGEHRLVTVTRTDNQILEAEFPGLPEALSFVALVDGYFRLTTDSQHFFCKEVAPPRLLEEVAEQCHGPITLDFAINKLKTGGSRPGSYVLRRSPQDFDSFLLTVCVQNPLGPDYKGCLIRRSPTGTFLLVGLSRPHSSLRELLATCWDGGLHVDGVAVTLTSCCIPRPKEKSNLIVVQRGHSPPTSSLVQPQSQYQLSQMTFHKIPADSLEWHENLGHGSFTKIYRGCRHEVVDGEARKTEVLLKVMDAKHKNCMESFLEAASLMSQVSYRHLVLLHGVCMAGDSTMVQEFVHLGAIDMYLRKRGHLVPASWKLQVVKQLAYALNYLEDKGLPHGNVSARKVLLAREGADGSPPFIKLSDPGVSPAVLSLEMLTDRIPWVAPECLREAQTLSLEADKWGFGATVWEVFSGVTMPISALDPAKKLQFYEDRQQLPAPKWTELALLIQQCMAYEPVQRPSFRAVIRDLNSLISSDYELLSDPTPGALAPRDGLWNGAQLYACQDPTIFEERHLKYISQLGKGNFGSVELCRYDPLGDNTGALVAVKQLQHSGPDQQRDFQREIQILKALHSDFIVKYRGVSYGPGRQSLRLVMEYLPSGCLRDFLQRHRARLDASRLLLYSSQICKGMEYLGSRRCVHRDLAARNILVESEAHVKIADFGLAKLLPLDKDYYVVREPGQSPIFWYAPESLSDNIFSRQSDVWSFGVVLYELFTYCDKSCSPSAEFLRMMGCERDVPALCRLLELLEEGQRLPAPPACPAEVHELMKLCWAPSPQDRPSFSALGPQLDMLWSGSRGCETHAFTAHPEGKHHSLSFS", "assay": "Panel of kinases: JAK3", "type": "biochemical", "conditions": "Cys: Y"}, "[2]": {"molecular_target": "BLK (Homo sapiens, UniProt P51451)", "sequence (P51451 whole entry)": "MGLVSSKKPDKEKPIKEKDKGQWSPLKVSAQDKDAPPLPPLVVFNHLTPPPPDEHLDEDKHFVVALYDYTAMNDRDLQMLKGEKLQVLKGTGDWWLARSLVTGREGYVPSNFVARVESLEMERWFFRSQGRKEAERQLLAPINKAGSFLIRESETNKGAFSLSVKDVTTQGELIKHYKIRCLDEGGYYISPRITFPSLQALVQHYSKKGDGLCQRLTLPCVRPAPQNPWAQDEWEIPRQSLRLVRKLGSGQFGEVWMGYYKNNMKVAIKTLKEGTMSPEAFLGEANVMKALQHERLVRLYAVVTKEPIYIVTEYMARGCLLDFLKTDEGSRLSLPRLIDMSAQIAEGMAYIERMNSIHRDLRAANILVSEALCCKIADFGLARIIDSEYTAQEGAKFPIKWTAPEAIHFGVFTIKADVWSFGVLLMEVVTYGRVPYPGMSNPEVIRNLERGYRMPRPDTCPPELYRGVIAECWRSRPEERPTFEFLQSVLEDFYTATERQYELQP", "assay": "Panel of kinases: BLK", "type": "biochemical", "conditions": "Cys: Y"}, "[3]": {"molecular_target": "ITK (Homo sapiens, UniProt Q08881)", "sequence (Q08881 whole entry)": "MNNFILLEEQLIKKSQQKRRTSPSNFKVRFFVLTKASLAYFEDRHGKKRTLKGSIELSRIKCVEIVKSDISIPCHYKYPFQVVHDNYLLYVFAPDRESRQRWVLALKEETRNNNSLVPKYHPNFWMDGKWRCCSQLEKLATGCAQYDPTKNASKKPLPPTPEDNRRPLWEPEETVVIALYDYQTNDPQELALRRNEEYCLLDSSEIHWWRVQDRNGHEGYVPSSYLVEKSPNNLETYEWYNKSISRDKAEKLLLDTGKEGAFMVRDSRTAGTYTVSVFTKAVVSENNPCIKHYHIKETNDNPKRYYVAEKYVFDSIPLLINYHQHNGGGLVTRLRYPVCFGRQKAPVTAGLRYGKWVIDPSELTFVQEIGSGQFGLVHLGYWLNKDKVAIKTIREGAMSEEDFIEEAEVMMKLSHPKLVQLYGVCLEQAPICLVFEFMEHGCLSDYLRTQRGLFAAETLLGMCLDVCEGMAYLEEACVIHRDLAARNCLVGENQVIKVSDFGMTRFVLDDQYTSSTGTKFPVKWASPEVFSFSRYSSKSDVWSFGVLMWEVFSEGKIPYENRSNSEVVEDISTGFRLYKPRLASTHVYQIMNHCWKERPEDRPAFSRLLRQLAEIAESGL", "assay": "Panel of kinases: ITK", "type": "biochemical", "conditions": "Cys: Y"}, "[4]": {"test_system": "DHL-6", "assay": "Cytotoxicity DHL-6", "type": "cell-based", "conditions": "Lymphoma"}, "[5]": {"test_system": "DOHH2", "assay": "Cytotoxicity DOHH2", "type": "cell-based", "conditions": "for GI50: Homo sapiens, DOHH-2, Lymphoma"}, "[6]": {"test_system": "DLCL2", "assay": "Cytotoxicity DLCL2", "type": "cell-based", "conditions": "Lymphoma"}, "[7]": {"test_system": "Mino", "assay": "Cytotoxicity Mino", "type": "cell-based", "conditions": "Homo sapiens, Lymphoma"}, "[8]": {"test_system": "Raji", "assay": "Cytotoxicity Raji", "type": "cell-based", "conditions": "Homo sapiens, Lymphoma"}, "[9]": {"test_system": "CRL-8062", "assay": "Cytotoxicity CRL-8062", "type": "cell-based", "conditions": "Myeloma"}, "[10]": {"test_system": "A549", "assay": "Cytotoxicity A549", "type": "cell-based", "conditions": "Homo sapiens, Lung"}, "[11]": {"test_system": "NCI-H460", "assay": "Cytotoxicity NCI-H460", "type": "cell-based", "conditions": "Homo sapiens, Lung"}, "[12]": {"test_system": "BT-549", "assay": "Cytotoxicity BT-549", "type": "cell-based", "conditions": "Homo sapiens, Breast"}, "[13]": {"test_system": "SK-BR3", "assay": "Cytotoxicity SK-BR3", "type": "cell-based", "conditions": "Homo sapiens, SK-BR-3; Breast"}, "[14]": {"test_system": "MDA-MB-361", "assay": "Cytotoxicity MDA-MB-361", "type": "cell-based", "conditions": "Homo sapiens, Breast"}, "[15]": {"test_system": "MDA-MB-468", "assay": "Cytotoxicity MDA-MB-468", "type": "cell-based", "conditions": "Homo sapiens, Breast"}, "[16]": {"test_system": "MDA-MB-231", "assay": "Cytotoxicity MDA-MB-231", "type": "cell-based", "conditions": "Homo sapiens, Breast"}, "[17]": {"test_system": "MDA-MB-453", "assay": "Cytotoxicity MDA-MB-453", "type": "cell-based", "conditions": "Homo sapiens, Breast"}, "[18]": {"test_system": "pERK in DOHH2 cells", "assay": "Basal pERK levels in unstimulated DOHH2 cells", "type": "cell-based", "conditions": "Homo sapiens, DOHH-2, read-out: decrease of pERK levels IC50", "description": "(§1) To identify biomarkers that correlate with response to Compound 4, phosphorylation events in the BCR signal transduction pathway were investigated. […].\n. However, when we examined basal phosphorylation levels, we found higher basal phosphorylation in DOHH2 compared to Ramos, with phospho-ERK in particular indicating higher levels of basal or tonic signaling in DOHH2. […]"}, "[19]": {"test_system": "Btk expressing B cell lymphoma cell lines", "assay": "Panel of nine Btk expressing B cell lymphoma cell lines", "type": "cell-based"}, "[20]": {"test_system": "Egr-1", "assay": "Expression of ERK transcriptional target Egr-1", "type": "cell-based", "conditions": "1 uM"}, "[21]": {"test_system": "Ramos", "assay": "Sensitivity of Ramos cell line", "type": "cell-based, human", "description": "as §1"}, "[22]": {"test_system": "DHL-6 cells", "assay": "Growth of DHL-6 cells (Alamar Blue, FIG. 3)", "type": "cell-based", "conditions": "3E4 cells/well, complete media, 0.1% DMSO"}, "[23]": {"molecular_target": "Btk (Homo sapiens, UniProt Q06187)", "sequence (Q06187 whole entry)": "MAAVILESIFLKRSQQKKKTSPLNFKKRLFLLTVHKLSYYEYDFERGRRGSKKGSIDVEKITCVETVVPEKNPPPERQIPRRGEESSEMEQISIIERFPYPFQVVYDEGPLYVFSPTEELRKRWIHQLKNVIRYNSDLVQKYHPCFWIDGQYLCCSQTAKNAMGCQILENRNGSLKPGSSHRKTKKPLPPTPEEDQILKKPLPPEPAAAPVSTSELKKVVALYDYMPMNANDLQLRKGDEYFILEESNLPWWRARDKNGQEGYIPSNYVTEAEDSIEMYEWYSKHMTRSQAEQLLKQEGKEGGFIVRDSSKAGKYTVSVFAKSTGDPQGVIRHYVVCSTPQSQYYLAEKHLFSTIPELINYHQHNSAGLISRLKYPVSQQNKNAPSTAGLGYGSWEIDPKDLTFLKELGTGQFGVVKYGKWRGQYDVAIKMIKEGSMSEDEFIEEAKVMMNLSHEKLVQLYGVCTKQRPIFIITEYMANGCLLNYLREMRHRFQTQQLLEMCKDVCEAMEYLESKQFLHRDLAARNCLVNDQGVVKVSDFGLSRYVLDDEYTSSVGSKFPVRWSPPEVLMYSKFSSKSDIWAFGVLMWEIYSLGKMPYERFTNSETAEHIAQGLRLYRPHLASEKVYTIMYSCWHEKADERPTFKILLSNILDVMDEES", "assay": "Btk acellular kinase assay (TR-FRET)", "type": "biochemical"}, "[24]": {"conditions": "acellular TR-FRET kinase assay, ATP at Km, read-out: Btk IC50"}},
  "note": "Read-outs that look alike come from different tables or passages of the source.",
  "data": [
    {"smiles": "C=CC(=O)N[C@H]1CC[C@@H](n2nc(-c3ccc(Oc4ccccc4)cc3)c3c(N)ncnc32)CC1", "note": "[Compound 10, N-((1s,4s)-4-(4-amino-3-(4-phenoxyphenyl)-1H-pyrazolo[3,4-d]pyrimidin-1-yl)cyclohexyl)acrylamide]", "values": [
      {"measurement": "IC50", "setting": "[1]", "result": 8280, "unit": "nM"},
      {"measurement": "IC50", "setting": "[2]", "result": 0.17, "unit": "nM"},
      {"measurement": "IC50", "setting": "[3]", "result": 910, "unit": "nM"},
      {"measurement": "GI50", "setting": "[4]", "result": 0.009, "unit": "µM"},
      {"measurement": "GI50", "setting": "[5]", "result": 0.011, "unit": "µM"},
      {"measurement": "GI50", "setting": "[6]", "result": 4.82, "unit": "µM"},
      {"measurement": "GI50", "setting": "[7]", "result": 0.12, "unit": "µM"},
      {"measurement": "GI50", "setting": "[8]", "result": "> 10", "unit": "µM"},
      {"measurement": "GI50", "setting": "[9]", "result": "> 10", "unit": "µM"},
      {"measurement": "GI50", "setting": "[10]", "result": 3.13, "unit": "µM"},
      {"measurement": "GI50", "setting": "[11]", "result": "> 10", "unit": "µM"},
      {"measurement": "GI50", "setting": "[12]", "result": 2.79, "unit": "µM"},
      {"measurement": "GI50", "setting": "[13]", "result": 0.24, "unit": "µM"},
      {"measurement": "GI50", "setting": "[14]", "result": "> 10", "unit": "µM"},
      {"measurement": "GI50", "setting": "[15]", "result": "> 10", "unit": "µM"},
      {"measurement": "GI50", "setting": "[16]", "result": "> 10", "unit": "µM"},
      {"measurement": "GI50", "setting": "[17]", "result": 0.54, "unit": "µM"}
    ]},
    {"smiles": "C=CC(=O)N1CCCC(n2nc(-c3ccc(Oc4ccccc4)cc3)c3c(N)ncnc32)C1", "note": "(centres unmarked) [Compound 4, 1-(3-(4-amino-3-(4-phenoxyphenyl)-1H-pyrazolo[3,4-d]pyrimidin-1-yl)piperidin-1-yl)prop-2-en-1-one]", "values": [
      {"measurement": "GI50", "setting": "[4]", "result": 0.75, "unit": "µM"},
      {"measurement": "sensitivity of cell line DOHH2", "setting": "[5]", "result": "sensitive"},
      {"measurement": "GI50", "setting": "[5]", "result": 0.77, "unit": "µM"},
      {"measurement": "GI50", "setting": "[6]", "result": 1.3, "unit": "µM"},
      {"measurement": "GI50", "setting": "[7]", "result": 1.9, "unit": "µM"},
      {"measurement": "GI50", "setting": "[8]", "result": "> 10", "unit": "µM"},
      {"measurement": "GI50", "setting": "[9]", "result": "> 10", "unit": "µM"},
      {"measurement": "GI50", "setting": "[10]", "result": "> 10", "unit": "µM"},
      {"measurement": "GI50", "setting": "[11]", "result": "> 10", "unit": "µM"},
      {"measurement": "GI50", "setting": "[12]", "result": "> 10", "unit": "µM"},
      {"measurement": "GI50", "setting": "[13]", "result": 0.44, "unit": "µM"},
      {"measurement": "GI50", "setting": "[14]", "result": "> 10", "unit": "µM"},
      {"measurement": "GI50", "setting": "[15]", "result": "> 10", "unit": "µM"},
      {"measurement": "GI50", "setting": "[16]", "result": "> 10", "unit": "µM"},
      {"measurement": "GI50", "setting": "[17]", "result": "< 0.001", "unit": "µM"},
      {"measurement": "IC50", "setting": "[18]", "result": "< 10", "unit": "nM"},
      {"measurement": "GI50", "setting": "[19]; B-cell, 5 of seven lines with high basal pERK, read-out: GI50 of sensitive cell lines", "result": "< 1300", "unit": "nM"},
      {"measurement": "response of cell lines with low pERK levels", "setting": "[19]; two cell lines with low pERK levels", "result": "resistant"},
      {"measurement": "time within which Egr-1 expression is reduced", "setting": "[20]", "result": "≤ 1", "unit": "h"},
      {"measurement": "sensitivity of cell line Ramos", "setting": "[21]", "result": "resistant"}
    ]},
    {"smiles": "CN(C)C/C=C/C(=O)N1CCC[C@@H](n2nc(-c3ccc(Oc4ccccc4)cc3)c3c(N)ncnc32)C1", "note": "[Compound 15, (E)-1-(3-(4-amino-3-(4-phenoxyphenyl)-1H-pyrazolo[3,4-d]pyrimidin-1-yl)piperidin-1-yl)-4-(dimethylamino)but-2-en-1-one]", "values": [
      {"measurement": "growth of DHL-6 cells", "setting": "[22]", "result": "inhibit growth"}
    ]},
    {"smiles": "C=CC(=O)N1CC[C@@H](n2nc(-c3ccc(Oc4ccccc4)cc3)c3c(N)ncnc32)C1", "note": "[Compound 11, 1-((R)-3-(4-amino-3-(4-phenoxyphenyl)-1H-pyrazolo[3,4-d]pyrimidin-1-yl)pyrrolidin-1-yl)prop-2-en-1-one]", "values": [
      {"measurement": "IC50", "setting": "[23]; [24]", "result": 1.6, "unit": "nM"}
    ]},
    {"smiles": "C=CC(=O)N1CC[C@H](n2nc(-c3ccc(Oc4ccccc4)cc3)c3c(N)ncnc32)C1", "note": "[Compound 12, 1-((S)-3-(4-amino-3-(4-phenoxyphenyl)-1H-pyrazolo[3,4-d]pyrimidin-1-yl)pyrrolidin-1-yl)prop-2-en-1-one]", "values": [
      {"measurement": "IC50", "setting": "[23]; [24]", "result": 1.9, "unit": "nM"}
    ]},
    {"smiles": "C/C=C/C(=O)N1CCCC(n2nc(-c3ccc(Oc4ccccc4)cc3)c3c(N)ncnc32)C1", "note": "(centres unmarked) [Compound 5, (E)-1-(3-(4-amino-3-(4-phenoxyphenyl)-1H-pyrazolo[3,4-d]pyrimidin-1-yl)piperidin-1-yl)but-2-en-1-one]", "values": [
      {"measurement": "fold less potent than 4", "setting": "[23]; Btk potency relative to compound 4", "result": 28, "unit": "fold"},
      {"measurement": "IC50", "setting": "[23]; [24]", "result": 20, "unit": "nM"}
    ]},
    {"smiles": "C=CC(=O)N1CCC(n2nc(-c3ccc(Oc4ccccc4)cc3)c3c(N)ncnc32)CC1", "note": "[Compound 9, 1-(4-(4-amino-3-(4-phenoxyphenyl)-1H-pyrazolo[3,4-d]pyrimidin-1-yl)piperidin-1-yl)prop-2-en-1-one]", "values": [
      {"measurement": "IC50", "setting": "[23]; [24]", "result": 3.6, "unit": "nM"}
    ]},
    {"smiles": "C#CC(=O)N1CCCC(n2nc(-c3ccc(Oc4ccccc4)cc3)c3c(N)ncnc32)C1", "note": "(centres unmarked) [Compound 8, 1-(3-(4-amino-3-(4-phenoxyphenyl)-1H-pyrazolo[3,4-d]pyrimidin-1-yl)piperidin-1-yl)prop-2-yn-1-one]", "values": [
      {"measurement": "IC50", "setting": "[23]", "result": 0.72, "unit": "nM"}
    ]}
  ]
}
